Data as given in ChEMBL document CHEMBL4257514, “Design and synthesis of novel 1,3,5-triphenyl pyrazolines as potential anti-inflammatory agents through allosteric inhibition of protein kinase Czeta (PKCζ)” (Medchemcomm, 2018).
Active and inactive are the calls of the source. The calls are words filed in the database; no cut-off is given here.

What was measured:
RAW264.7 [1] = experiment: Inhibition of LPS-induced nitric oxide production in mouse RAW264.7 cells at 7.5 uM measured after 20 hrs by griess assay relative to control; assay type: functional; conditions: RAW264.7, 20 h
RAW264.7 [2] = experiment: Inhibition of LPS-induced nitric oxide production in mouse RAW264.7 cells measured after 20 hrs by griess assay; assay type: functional, cell-based; conditions: RAW264.7, 20 h
[3] = target: T1, Protein kinase C zeta type (Homo sapiens, UniProt Q05513); experiment: Inhibition of recombinant GST-fused PKCzeta (unknown origin) expressed in HEK293 cells using myelin basic protein as substrate measured after 40 mins in presence of [gamma32P]ATP by phosphorimaging analysis
T1 sequence (Q05513 whole entry): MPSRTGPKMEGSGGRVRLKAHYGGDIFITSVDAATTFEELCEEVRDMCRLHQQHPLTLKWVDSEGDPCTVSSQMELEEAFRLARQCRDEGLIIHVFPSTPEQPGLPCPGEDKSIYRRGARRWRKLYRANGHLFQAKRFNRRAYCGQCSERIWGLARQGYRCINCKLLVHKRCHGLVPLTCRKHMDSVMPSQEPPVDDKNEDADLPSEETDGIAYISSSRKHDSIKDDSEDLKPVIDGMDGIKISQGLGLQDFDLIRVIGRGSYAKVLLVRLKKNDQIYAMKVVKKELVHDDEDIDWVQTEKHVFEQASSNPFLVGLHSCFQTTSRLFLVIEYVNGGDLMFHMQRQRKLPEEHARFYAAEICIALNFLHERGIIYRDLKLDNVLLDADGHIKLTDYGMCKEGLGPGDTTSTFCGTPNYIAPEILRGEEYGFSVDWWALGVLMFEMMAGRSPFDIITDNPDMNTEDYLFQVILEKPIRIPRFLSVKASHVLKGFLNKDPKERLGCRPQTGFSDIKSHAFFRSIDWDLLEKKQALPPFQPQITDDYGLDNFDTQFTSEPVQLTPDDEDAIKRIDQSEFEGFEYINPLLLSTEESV

[4] = Cytotoxicity against mouse RAW264.7 cells assessed as live cells at 7.5 uM after 20 hrs by MTT assay relative to control; assay type: cell-based; conditions: read-out: Activity
[5] = target: T2, Protein kinase C iota type (Homo sapiens) (UniProt P41743); experiment: Inhibition of recombinant GST-fused PKCiota (unknown origin) expressed in HEK293 cells at 20 uM using myelin basic protein as substrate measured after 40 mins in presence of [gamma32P]ATP by phosphorimaging analysis relative to control
T2 sequence (whole entry): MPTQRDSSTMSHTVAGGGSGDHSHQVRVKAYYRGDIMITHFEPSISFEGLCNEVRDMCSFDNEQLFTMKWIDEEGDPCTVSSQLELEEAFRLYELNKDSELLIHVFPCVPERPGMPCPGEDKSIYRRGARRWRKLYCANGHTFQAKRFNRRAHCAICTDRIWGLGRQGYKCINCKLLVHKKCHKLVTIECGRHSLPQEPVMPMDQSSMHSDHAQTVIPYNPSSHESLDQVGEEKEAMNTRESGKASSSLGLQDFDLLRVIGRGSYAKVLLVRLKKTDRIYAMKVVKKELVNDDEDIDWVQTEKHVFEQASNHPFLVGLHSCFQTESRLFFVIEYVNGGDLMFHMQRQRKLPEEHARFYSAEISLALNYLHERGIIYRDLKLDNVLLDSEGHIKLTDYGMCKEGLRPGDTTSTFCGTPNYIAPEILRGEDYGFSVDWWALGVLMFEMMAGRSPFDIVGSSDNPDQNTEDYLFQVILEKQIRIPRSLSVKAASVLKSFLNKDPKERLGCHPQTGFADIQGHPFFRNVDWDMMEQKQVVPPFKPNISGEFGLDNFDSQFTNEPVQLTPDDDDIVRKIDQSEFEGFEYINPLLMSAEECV

[6] = target: Protein kinase C beta type (Homo sapiens) (UniProt P05771); experiment: Inhibition of PKCbeta2 (unknown origin) at 10 uM
Chain of Protein kinase C beta type (Homo sapiens) (P05771 2-671 limits assumed): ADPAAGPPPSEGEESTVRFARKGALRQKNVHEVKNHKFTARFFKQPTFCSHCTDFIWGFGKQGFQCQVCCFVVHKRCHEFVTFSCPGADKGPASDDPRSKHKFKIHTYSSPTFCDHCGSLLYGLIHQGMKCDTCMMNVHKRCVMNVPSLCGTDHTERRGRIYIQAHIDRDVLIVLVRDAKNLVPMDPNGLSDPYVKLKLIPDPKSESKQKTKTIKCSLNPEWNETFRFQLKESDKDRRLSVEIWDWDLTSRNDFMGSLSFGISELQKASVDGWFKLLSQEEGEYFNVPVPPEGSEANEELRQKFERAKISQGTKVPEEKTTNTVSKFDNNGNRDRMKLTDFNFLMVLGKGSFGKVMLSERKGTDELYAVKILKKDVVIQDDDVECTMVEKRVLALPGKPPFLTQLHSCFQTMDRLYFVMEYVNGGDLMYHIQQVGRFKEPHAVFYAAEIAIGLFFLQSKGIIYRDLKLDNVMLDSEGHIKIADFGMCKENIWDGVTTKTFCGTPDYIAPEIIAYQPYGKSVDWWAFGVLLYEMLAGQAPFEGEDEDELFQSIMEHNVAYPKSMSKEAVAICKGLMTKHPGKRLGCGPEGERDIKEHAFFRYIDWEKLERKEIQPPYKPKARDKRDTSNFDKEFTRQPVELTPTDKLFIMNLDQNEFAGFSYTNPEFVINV

[7] = target: Protein kinase C alpha type (Homo sapiens) (UniProt P17252); experiment: Inhibition of PKCalpha (unknown origin) at 10 uM
[8] = target: T3, 3-phosphoinositide-dependent protein kinase 1 (Homo sapiens) (UniProt O15530); experiment: Inhibition of PDK1 (unknown origin) at 10 uM
T3 sequence (whole entry): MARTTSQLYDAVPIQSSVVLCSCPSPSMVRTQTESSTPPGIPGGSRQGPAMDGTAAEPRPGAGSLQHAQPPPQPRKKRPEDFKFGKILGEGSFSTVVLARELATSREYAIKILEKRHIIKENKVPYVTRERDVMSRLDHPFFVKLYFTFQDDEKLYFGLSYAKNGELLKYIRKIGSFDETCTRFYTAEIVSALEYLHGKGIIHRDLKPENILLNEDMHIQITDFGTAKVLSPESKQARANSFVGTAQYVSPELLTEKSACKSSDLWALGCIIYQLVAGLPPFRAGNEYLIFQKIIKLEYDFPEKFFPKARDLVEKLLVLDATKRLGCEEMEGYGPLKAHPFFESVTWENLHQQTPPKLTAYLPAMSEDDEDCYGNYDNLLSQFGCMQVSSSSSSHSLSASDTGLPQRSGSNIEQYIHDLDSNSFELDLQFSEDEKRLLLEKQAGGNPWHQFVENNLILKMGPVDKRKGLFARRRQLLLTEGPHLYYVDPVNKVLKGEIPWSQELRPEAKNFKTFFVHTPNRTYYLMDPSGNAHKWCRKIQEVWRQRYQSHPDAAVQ

[9] = target: Protein kinase C beta type (Homo sapiens) (UniProt P05771); experiment: Inhibition of PKCbeta1 (unknown origin) at 10 uM
[10] = target: Protein kinase C delta type (Homo sapiens) (UniProt Q05655); experiment: Inhibition of PKCdelta (unknown origin) at 10 uM
Chain of Protein kinase C delta type (Homo sapiens) (Q05655 whole entry, looked up): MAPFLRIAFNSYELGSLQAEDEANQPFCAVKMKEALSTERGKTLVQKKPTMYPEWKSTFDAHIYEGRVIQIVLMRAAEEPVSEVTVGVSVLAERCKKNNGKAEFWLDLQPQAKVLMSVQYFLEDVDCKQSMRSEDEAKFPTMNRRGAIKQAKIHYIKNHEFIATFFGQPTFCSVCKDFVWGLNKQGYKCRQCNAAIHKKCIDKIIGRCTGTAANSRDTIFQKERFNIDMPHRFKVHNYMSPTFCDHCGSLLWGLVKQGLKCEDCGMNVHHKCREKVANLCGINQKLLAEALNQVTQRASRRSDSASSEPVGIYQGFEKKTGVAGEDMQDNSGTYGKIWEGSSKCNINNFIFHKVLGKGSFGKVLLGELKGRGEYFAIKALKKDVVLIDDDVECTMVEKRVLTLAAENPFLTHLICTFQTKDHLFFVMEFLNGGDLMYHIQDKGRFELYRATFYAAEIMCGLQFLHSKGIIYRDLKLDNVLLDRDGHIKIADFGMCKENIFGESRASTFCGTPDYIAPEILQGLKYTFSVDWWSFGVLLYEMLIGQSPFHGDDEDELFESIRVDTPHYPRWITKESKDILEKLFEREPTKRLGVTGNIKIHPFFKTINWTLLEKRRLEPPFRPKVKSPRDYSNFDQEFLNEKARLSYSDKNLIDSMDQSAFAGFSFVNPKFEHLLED

[11] = target: T4, Protein kinase C epsilon type (Homo sapiens) (UniProt Q02156); experiment: Inhibition of PKCepsilon (unknown origin) at 10 uM
T4 sequence (whole entry): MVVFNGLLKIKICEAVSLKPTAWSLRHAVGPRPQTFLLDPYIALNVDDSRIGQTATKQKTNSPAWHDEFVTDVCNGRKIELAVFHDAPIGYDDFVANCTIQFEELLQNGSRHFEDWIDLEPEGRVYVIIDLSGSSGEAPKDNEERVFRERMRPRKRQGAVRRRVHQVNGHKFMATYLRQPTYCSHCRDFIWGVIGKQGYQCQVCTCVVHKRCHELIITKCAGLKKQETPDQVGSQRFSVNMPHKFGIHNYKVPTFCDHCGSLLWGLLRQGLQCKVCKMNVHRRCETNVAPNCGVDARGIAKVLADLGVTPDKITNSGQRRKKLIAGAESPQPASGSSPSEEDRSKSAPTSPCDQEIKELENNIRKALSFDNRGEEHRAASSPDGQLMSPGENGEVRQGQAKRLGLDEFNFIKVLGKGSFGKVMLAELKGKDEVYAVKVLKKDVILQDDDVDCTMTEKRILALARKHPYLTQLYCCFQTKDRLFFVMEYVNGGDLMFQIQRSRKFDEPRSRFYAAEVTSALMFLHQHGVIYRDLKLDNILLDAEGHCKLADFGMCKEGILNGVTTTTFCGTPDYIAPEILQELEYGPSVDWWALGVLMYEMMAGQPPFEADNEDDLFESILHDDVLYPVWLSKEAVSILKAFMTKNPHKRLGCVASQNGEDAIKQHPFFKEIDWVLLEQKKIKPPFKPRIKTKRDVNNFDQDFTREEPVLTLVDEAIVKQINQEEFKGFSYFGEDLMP

[12] = target: Protein kinase C theta type (Homo sapiens) (UniProt Q04759); experiment: Inhibition of PKCtheta (unknown origin) at 10 uM
Chain of Protein kinase C theta type (Homo sapiens) (Q04759 whole entry, looked up): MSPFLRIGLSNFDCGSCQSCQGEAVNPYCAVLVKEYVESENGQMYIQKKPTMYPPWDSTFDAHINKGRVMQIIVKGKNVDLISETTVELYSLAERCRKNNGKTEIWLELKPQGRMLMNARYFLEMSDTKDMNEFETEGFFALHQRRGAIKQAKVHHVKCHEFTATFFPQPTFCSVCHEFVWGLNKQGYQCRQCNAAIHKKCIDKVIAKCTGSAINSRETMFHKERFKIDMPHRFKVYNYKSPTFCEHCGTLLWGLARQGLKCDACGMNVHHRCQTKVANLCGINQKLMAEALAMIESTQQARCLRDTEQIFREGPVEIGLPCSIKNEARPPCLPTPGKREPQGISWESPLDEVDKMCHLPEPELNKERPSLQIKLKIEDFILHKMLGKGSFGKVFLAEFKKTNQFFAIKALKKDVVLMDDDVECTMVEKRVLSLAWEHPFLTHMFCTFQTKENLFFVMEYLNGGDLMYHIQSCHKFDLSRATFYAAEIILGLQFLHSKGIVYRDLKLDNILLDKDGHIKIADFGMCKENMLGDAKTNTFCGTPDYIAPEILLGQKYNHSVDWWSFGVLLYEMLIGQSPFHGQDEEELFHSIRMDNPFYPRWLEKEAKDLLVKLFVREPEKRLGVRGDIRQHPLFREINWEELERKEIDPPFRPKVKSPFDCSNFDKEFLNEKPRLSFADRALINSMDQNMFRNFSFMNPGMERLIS

[13] = target: Protein kinase C gamma type (Homo sapiens) (UniProt P05129); experiment: Inhibition of PKCgamma (unknown origin) at 10 uM
[14] = target: Serine/threonine-protein kinase N1 (Homo sapiens) (UniProt Q16512); experiment: Inhibition of PKN1 (unknown origin) at 10 uM
Chain of Serine/threonine-protein kinase N1 (Homo sapiens) (Q16512 2-942 limits assumed): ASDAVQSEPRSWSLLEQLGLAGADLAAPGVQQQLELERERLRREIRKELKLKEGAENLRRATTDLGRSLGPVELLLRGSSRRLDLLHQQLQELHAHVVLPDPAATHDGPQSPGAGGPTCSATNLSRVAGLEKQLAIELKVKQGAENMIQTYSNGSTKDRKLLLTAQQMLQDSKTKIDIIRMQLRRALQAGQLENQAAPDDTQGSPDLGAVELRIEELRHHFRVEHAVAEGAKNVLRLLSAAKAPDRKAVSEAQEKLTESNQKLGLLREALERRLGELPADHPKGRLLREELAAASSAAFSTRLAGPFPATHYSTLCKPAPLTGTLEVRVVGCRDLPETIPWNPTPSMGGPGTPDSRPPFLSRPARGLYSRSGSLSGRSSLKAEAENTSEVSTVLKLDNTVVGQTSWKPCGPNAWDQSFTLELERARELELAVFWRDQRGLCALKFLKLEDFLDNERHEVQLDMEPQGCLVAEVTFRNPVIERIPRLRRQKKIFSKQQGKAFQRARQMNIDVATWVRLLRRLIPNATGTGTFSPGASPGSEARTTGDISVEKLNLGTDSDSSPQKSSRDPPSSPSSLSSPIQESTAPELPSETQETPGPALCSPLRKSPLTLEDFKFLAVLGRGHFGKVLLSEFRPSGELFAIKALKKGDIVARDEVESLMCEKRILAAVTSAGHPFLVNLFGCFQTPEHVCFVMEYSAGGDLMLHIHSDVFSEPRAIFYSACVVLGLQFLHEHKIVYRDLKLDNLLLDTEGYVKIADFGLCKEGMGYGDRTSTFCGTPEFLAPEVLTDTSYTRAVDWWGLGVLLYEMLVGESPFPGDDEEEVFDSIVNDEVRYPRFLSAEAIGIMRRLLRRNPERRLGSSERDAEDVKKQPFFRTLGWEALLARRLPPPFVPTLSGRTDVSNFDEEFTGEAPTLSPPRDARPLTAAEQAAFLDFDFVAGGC

[15] = target: Protein kinase C eta type (Homo sapiens) (UniProt P24723); experiment: Inhibition of PKCeta (unknown origin) at 10 uM
Chain of Protein kinase C eta type (Homo sapiens) (P24723 whole entry, the tested form may be a part): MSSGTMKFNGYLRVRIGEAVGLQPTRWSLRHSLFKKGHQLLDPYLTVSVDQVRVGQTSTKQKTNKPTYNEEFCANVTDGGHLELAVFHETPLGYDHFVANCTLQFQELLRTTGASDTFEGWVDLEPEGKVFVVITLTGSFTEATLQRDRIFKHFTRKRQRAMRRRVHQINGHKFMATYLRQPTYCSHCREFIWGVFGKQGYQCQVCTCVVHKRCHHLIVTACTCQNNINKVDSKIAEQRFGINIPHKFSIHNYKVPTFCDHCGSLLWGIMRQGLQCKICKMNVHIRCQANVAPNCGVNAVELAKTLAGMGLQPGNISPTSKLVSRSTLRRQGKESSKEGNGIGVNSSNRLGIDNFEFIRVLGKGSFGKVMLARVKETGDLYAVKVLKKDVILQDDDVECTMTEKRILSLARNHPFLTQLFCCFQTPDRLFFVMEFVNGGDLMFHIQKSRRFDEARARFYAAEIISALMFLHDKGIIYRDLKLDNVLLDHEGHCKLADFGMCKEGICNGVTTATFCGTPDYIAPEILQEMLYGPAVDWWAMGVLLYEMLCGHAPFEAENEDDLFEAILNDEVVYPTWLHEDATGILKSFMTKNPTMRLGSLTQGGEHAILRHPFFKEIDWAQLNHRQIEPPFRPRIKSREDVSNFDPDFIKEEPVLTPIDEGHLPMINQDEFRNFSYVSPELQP

[16] = target: Protein kinase C zeta type (Homo sapiens, UniProt Q05513, V297L); experiment: Inhibition of recombinant GST-fused PKCzeta Val297Leu mutant (unknown origin) expressed in HEK293 cells using myelin basic protein as substrate measured after 40 mins in presence of [gamma32P]ATP by phosphorimaging analysis
Chain of Protein kinase C zeta type (Homo sapiens, UniProt Q05513, V297L) (Q05513 whole entry V297L, the tested form may be a part): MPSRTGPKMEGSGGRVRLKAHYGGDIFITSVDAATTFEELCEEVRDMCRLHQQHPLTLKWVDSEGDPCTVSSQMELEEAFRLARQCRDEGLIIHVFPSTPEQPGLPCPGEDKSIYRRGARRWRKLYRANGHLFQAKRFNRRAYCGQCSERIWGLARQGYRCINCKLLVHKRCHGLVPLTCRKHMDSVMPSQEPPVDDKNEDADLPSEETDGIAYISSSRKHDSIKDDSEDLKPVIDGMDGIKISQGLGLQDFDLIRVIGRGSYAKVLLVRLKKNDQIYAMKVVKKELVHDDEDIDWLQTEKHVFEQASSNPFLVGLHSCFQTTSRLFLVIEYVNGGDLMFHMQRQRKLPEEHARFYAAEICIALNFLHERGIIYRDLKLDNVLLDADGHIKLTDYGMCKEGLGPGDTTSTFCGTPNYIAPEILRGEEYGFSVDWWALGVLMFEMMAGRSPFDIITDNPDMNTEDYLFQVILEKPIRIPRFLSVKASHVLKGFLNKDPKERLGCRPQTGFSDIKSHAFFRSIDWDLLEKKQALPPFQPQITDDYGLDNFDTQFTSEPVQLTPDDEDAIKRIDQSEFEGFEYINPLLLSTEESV

Homo sapiens = species: Homo sapiens; experiment: Selectivity ratio of IC50 for recombinant GST-fused PKCzeta Val297Leu mutant (unknown origin) expressed in HEK293 cells to IC50 for recombinant GST-fused PKCzeta (unknown origin) expressed in HEK293 cells; assay type: cell-based

In the case of `COc1cc(/C=C/C(=O)CC(=O)/C=C/c2ccc(O)c(OC)c2)ccc1O` [CURCUMIN], the inhibition at 7.5 µM (RAW264.7 [1]) is reported as 97% and the IC50 (RAW264.7 [2]) is reported as 800 nM.

Work on `Oc1ccc(C2=NN(c3ccc(Cl)cc3)C(c3cccc(Cl)c3)C2)cc1` (stereo unspecified) yielded an inhibition at 7.5 µM (RAW264.7 [1]) of 34%, an IC50 [3] of under 100 nM and a viability at 20 h, 7.5 µM [4] of 96%. For the same compound, the inhibition [5] was 18.6%.

Compound `Oc1ccc(C2=NN(c3ccc(Cl)cc3)C(c3ccc(Cl)cc3)C2)cc1` (stereo unspecified) has an inhibition at 7.5 µM (RAW264.7 [1]) of 62.4%, a viability at 20 h, 7.5 µM [4] of 99% and an inhibition [5] of 24.9%.

For `Oc1ccc(C2=NN(c3ccc(Cl)cc3)C(c3ccc(Cl)cc3)C2)cc1O` (stereo unspecified), the inhibition [6] was “inactive”, the inhibition [7] was “inactive” and the inhibition at 7.5 µM (RAW264.7 [1]) was 100%. For the same compound, the inhibition [8] was 1%, the inhibition [9] was “inactive” and the inhibition [10] was “inactive”. The inhibition [11] was 11%, the inhibition [12] was “inactive” and the viability at 20 h, 7.5 µM [4] was 94%. For the same compound, the inhibition [13] was “inactive”, the inhibition [14] was 11% and the inhibition [15] was “inactive”. The IC50 (RAW264.7 [2]) was 300 nM and the inhibition [5] was 27.6%.

`Oc1cccc(C2=NN(c3ccc(Cl)cc3)C(c3ccc(Cl)cc3)C2)c1` (stereo unspecified) showed an inhibition at 7.5 µM (RAW264.7 [1]) of 45%, an IC50 [3] of 6500 nM and a viability at 20 h, 7.5 µM [4] of 91%. It also gave an inhibition [5] of 9.3%.

With `Oc1ccc(C2=NN(c3ccccc3Cl)C(c3ccccc3Cl)C2)cc1` (stereo unspecified) the inhibition at 7.5 µM (RAW264.7 [1]) was 34%, the viability at 20 h, 7.5 µM [4] was 92% and the inhibition [5] was 30.5%.

`Oc1ccc(C2CC(c3ccccc3O)=NN2c2cccc(Cl)c2)cc1F` (stereo unspecified) gave an inhibition at 7.5 µM (RAW264.7 [1]) of 86% and an IC50 (RAW264.7 [2]) of 2900 nM.

`Oc1ccc(C2=NN(c3cccc(Cl)c3)C(c3ccc(O)c(F)c3)C2)c(O)c1` (stereo unspecified) gave an inhibition at 7.5 µM (RAW264.7 [1]) of 87%, an IC50 [3] of under 100 nM and an IC50 (RAW264.7 [2]) of 3100 nM.

`Oc1ccc(C2=NN(c3cccc(Cl)c3)C(c3ccc(Cl)cc3)C2)cc1` (stereo unspecified) showed an inhibition at 7.5 µM (RAW264.7 [1]) of 42.8%, an IC50 [3] of under 100 nM and a viability at 20 h, 7.5 µM [4] of 91%. The inhibition [5] was 22.8%.

`Oc1ccc(C2=NN(c3cccc(Cl)c3)C(c3cccc(Cl)c3)C2)cc1` (stereo unspecified) gave an inhibition at 7.5 µM (RAW264.7 [1]) of 31.5%, an IC50 [3] of 400 nM and a viability at 20 h, 7.5 µM [4] of 86%. The IC50 [16] was 4100 nM, the Ratio IC50 (Homo sapiens) was 10.2 and the inhibition [5] was 29%.

For `Oc1ccc(C2=NN(c3ccc(Cl)cc3)C(c3ccc(Cl)cc3)C2)c(O)c1` (stereo unspecified), the inhibition at 7.5 µM (RAW264.7 [1]) was 31.4%, the IC50 [3] was 4300 nM and the viability at 20 h, 7.5 µM [4] was 88%. The IC50 [16] was 9700 nM, the Ratio IC50 (Homo sapiens) was 2.2 and the inhibition [5] was 14.8%.
